How the values were obtained:
Type in all cases: functional
Staphylococcus aureus [1] = assay: Minimum inhibitory concentration required against Staphylococcus aureus SA-1199, wild-type isolate
Staphylococcus aureus [2] = assay: Minimum inhibitory concentration required against Staphylococcus aureus GISA 992, vancomycin-insensitive SA.
Staphylococcus aureus [3] = assay: Minimum inhibitory concentration required against Staphylococcus aureus MRSA 494, methicillin resistant SA isolate
Staphylococcus aureus [4] = assay: Minimum inhibitory concentration required against Staphylococcus aureus SA 1199-3, laboratory-derived mutant of SA 1199 that inducibly overexpresses norA, no gyrase or topoisomerase IV mutations
Staphylococcus aureus [5] = assay: Minimum inhibitory concentration required against Staphylococcus aureus SA 1199B, constitutively overexpresses norA and harbors a topoisomerase IV A subunit substitution (A116E); parameters: unit not given beside the values

O=C(O)c1cn(C2CC2)c2cc(N3CCN(Cc4ccc(CN5CCN(c6ccccc6F)CC5)cc4)CC3)c(F)cc2c1=O
MIC (Staphylococcus aureus [1]): 0.5 | MIC (Staphylococcus aureus [2]): 16

O=C(O)c1cn(C2CC2)c2cc(N3CCN(/C=C/CN4CCN(c5ccccc5F)CC4)CC3)c(F)cc2c1=O
MIC (Staphylococcus aureus [1]): 0.5 | MIC (Staphylococcus aureus [2]): >16

CCn1cc(C(=O)O)c(=O)c2cnc(N3CCNCC3)nc21 [PIPEMIDIC ACID]
MIC (Staphylococcus aureus [1]): >16 | MIC (Staphylococcus aureus [2]): >16

CN1CCN(c2cc3c(cc2F)c(=O)ccn3C2CC2)CC1
MIC (Staphylococcus aureus [3]): >16 | MIC (Staphylococcus aureus [4]): >16 | MIC (Staphylococcus aureus [1]): >16 | MIC (Staphylococcus aureus [5]): >16 | MIC (Staphylococcus aureus [2]): >16

O=C(O)c1cn(C2CC2)c2cc(N3CCN(Cc4ccc(CN5CCN(c6cc7c(cc6F)c(=O)ccn7C6CC6)CC5)cc4)CC3)c(F)cc2c1=O
MIC (Staphylococcus aureus [3]): 1 | MIC (Staphylococcus aureus [4]): 0.5 | MIC (Staphylococcus aureus [1]): 0.25 | MIC (Staphylococcus aureus [5]): 0.5 | MIC (Staphylococcus aureus [2]): >16

O=C(O)c1cn(C2CC2)c2cc(N3CCN(Cc4ccc(CN5CCN(c6cc7c(cc6F)c(=O)c(C(=O)O)cn7C6CC6)CC5)cc4)CC3)c(F)cc2c1=O
MIC (Staphylococcus aureus [1]): 0.125 | MIC (Staphylococcus aureus [2]): 4

O=C(O)c1cn(C2CC2)c2cc(N3CCN(/C=C/CN4CCNCC4)CC3)c(F)cc2c1=O
MIC (Staphylococcus aureus [3]): 2 | MIC (Staphylococcus aureus [4]): 2 | MIC (Staphylococcus aureus [1]): 1 | MIC (Staphylococcus aureus [5]): 2 | MIC (Staphylococcus aureus [2]): >16

O=C(O)c1cn(C2CC2)c2cc(N3CCN(/C=C/CN4CCN(c5cc6c(cc5F)c(=O)c(C(=O)O)cn6C5CC5)CC4)CC3)c(F)cc2c1=O
MIC (Staphylococcus aureus [3]): 0.125 | MIC (Staphylococcus aureus [4]): 0.06 | MIC (Staphylococcus aureus [1]): 0.03 | MIC (Staphylococcus aureus [2]): >16

CCn1cc(C(=O)O)c(=O)c2cnc(N3CCN(Cc4ccc(CN5CCN(c6cc7c(cc6F)c(=O)c(C(=O)O)cn7C6CC6)CC5)cc4)CC3)nc21
MIC (Staphylococcus aureus [3]): 0.125 | MIC (Staphylococcus aureus [1]): <0.03 | MIC (Staphylococcus aureus [2]): 2

CN1CCN(c2cc3c(cc2F)c(=O)c(C(=O)O)cn3C2CC2)CC1
MIC (Staphylococcus aureus [3]): 0.5 | MIC (Staphylococcus aureus [4]): 1 | MIC (Staphylococcus aureus [1]): 0.125 | MIC (Staphylococcus aureus [5]): 8 | MIC (Staphylococcus aureus [2]): 32

O=C(O)c1cn(C2CC2)c2cc(N3CCN(Cc4ccc(CN5CCNCC5)cc4)CC3)c(F)cc2c1=O
MIC (Staphylococcus aureus [3]): 0.25 | MIC (Staphylococcus aureus [1]): 0.5 | MIC (Staphylococcus aureus [5]): 1 | MIC (Staphylococcus aureus [2]): >16

Source: ChEMBL document CHEMBL1136072, “Structural features of piperazinyl-linked ciprofloxacin dimers required for activity against drug-resistant strains of Staphylococcus aureus” (2003)
